Data: patent publication US20210115104A1, “AMYLIN ANALOGUES” (Zealand Pharma A/S, priority 2015, published 2021)
*1 amine or outer side, *2 acyl side, *3 side chain or, on linkers, in order; H or OH if unused. Where a SMILES comes first, the peptide text is derived from it. Bridges are numbered along the chain shown (N, C = ends). [ ]: non-standard residue; d: D form. The star is where a group is joined. C20 diacid = O=C(O)CCCCCCCCCCCCCCCCCCC(=O)*; γGlu = O=C(O)[C@H](CCC(=O)[*:2])N[*:1]; Hyp = O=C(O)[C@@H]1C[C@@H](O)CN1; NMeI = CC[C@H](C)[C@H](NC)C(=O)O; Sar = CNCC(=O)O

How the values were obtained:
[1] = Assessment of physical stability (Thioflavin T fibrillation); type: physicochemical; parameters: key: FND = fibrillation not detected; FD = fibrillation detected; conditions: 1 mg/ml, 40° C., ThT; for Fibrillation pH 4.0 (Ac): 50 mM acetate buffer pH 4.0, 96 hours; for Fibrillation pH 7.0 (His): 50 mM histidine buffer pH 7.0, 96 hours; for Fibrillation pH 7.0 (Phos.): 50 mM phosphate buffer pH 7.0, 96 hours
How it was run: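 1 mg/ml peptide with 40 μM ThT in 50 mM phosphate pH 7.0, 50 mM histidine pH 7.0 or 50 mM acetate pH 4.0, in triplicate. Fluorescence read every 10 min after 300 s agitation over 96 h at 40 °C. Lag-time (h) is the intersection of linear fits to stable and growth phases.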

[2] = biological target: T1, human amylin receptor 3 (hAMYR3), hCTR2 co-expressed with hRAMP3 (Homo sapiens, UniProt O60896+P30988); test: hAMYR3 cAMP assay (AlphaScreen) in COS7 cells; type: cell-based; conditions: cAMP induction, COS7 cells expressing hAMYR3; Table 1; read-out: hAMYR3 EC50
T1 construct: expressed in transfected cells
T1 sequence (P30988 25-474): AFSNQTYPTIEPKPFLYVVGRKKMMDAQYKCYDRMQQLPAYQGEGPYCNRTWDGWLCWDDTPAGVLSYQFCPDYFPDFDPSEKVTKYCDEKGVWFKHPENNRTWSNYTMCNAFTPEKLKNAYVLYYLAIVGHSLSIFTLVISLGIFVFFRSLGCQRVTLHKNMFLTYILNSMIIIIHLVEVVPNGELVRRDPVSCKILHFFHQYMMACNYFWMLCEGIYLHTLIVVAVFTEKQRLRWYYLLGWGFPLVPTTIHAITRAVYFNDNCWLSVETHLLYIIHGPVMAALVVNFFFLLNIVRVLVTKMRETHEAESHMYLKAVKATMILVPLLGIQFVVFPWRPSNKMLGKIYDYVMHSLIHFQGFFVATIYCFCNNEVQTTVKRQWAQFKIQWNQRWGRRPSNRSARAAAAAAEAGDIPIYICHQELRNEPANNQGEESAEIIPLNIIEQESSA
T1 sequence (O60896 24-148 partner): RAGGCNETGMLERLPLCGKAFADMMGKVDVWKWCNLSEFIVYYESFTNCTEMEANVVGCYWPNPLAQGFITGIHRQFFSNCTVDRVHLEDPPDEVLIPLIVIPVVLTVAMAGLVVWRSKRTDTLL
How it was run: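 Stable COS7 clone co-expressing hCTR2 and hRAMP3 was exposed to increasing peptide concentrations in Tyrode buffer (pH 7.4) with 100 µM IBMX and 0.1% casein for 15 min at 37 °C. Lysate cAMP was measured by AlphaScreen; EC50 came from 4-parameter logistic fitting.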

Row | Fibrillation pH 4.0 (Ac) [1] | Fibrillation pH 7.0 (His) [1] | Fibrillation pH 7.0 (Phos.) [1] | EC50 [2] [nM] | Structure (SMILES)
1 | FND | FND | FND | 0.13 | CC[C@H](C)[C@@H](C(=O)N[C@@H](CC(C)C)C(=O)N[C@@H](CO)C(=O)N[C@@H](CO)C(=O)N[C@H](C(=O)N[C@@H](CCC(=O)O)C(=O)N[C@H](C(=O)NCC(=O)N[C@@H](CO)C(=O)N[C@@H](CO)C(=O)N[C@H](C(=O)N1C[C@H](O)C[C@H]1C(N)=O)[C@@H](C)O)C(C)C)[C@@H](C)O)N(C)C(=O)[C@H](C)NC(=O)CN(C)C(=O)[C@H](Cc1ccccc1)NC(=O)[C@H](CO)NC(=O)[C@H](CO)NC(=O)[C@H](CCCNC(=N)N)NC(=O)[C@H](CCC(N)=O)NC(=O)[C@H](CC(C)C)NC(=O)[C@H](Cc1ccccc1)NC(=O)[C@H](Cc1c[nH]cn1)NC(=O)[C@H](C)NC(=O)[C@H](CC(C)C)NC(=O)[C@H](CCCNC(=N)N)NC(=O)[C@H](CCC(=O)O)NC(=O)[C@@H](NC(=O)[C@H](C)NC(=O)[C@@H]1CSSC[C@H](NC(=O)[C@H](CCCNC(=N)N)NC(=O)CC[C@H](NC(=O)CCCCCCCCCCCCCCCCCCC(=O)O)C(=O)O)C(=O)NCC(=O)N[C@@H]([C@@H](C)O)C(=O)N[C@@H](C)C(=O)N[C@@H]([C@@H](C)O)C(=O)N1)[C@@H](C)O [Compound 28, [19CD]-isoGlu-R-C( )-GTAT-C( )-ATERLAHFLQRSSF-Gly(Me)-A-Ile(Me)-LSSTEVGSST-Hyp-NH2] ({C20 diacid-γGlu}-RCGTATCATERLAHFLQRSSF[Sar]A[NMeI]LSSTEVGSST[Hyp]-NH2; disulfide 2-7)
2 | FND | FND | FND | 0.12 | CC[C@H](C)[C@@H](C(=O)N[C@@H](CC(C)C)C(=O)N[C@@H](CO)C(=O)N[C@@H](CO)C(=O)N[C@H](C(=O)N[C@@H](CCC(=O)O)C(=O)N[C@H](C(=O)NCC(=O)N[C@@H](CO)C(=O)N[C@@H](CO)C(=O)N[C@H](C(=O)N1CCC[C@H]1C(N)=O)[C@@H](C)O)C(C)C)[C@@H](C)O)N(C)C(=O)[C@H](C)NC(=O)CN(C)C(=O)[C@H](Cc1ccccc1)NC(=O)[C@H](CO)NC(=O)[C@H](CO)NC(=O)[C@H](CCCNC(=N)N)NC(=O)[C@H](CCC(N)=O)NC(=O)[C@H](CC(C)C)NC(=O)[C@H](Cc1ccccc1)NC(=O)[C@H](Cc1c[nH]cn1)NC(=O)[C@H](C)NC(=O)[C@H](CC(C)C)NC(=O)[C@H](CCCNC(=N)N)NC(=O)[C@H](CCC(=O)O)NC(=O)[C@@H](NC(=O)[C@H](C)NC(=O)[C@@H]1CSSC[C@H](NC(=O)[C@H](CCCNC(=N)N)NC(=O)CC[C@H](NC(=O)CCCCCCCCCCCCCCCCCCC(=O)O)C(=O)O)C(=O)NCC(=O)N[C@@H]([C@@H](C)O)C(=O)N[C@@H](C)C(=O)N[C@@H]([C@@H](C)O)C(=O)N1)[C@@H](C)O [Compound 34, [19CD]-isoGlu-R-C( )-GTAT-C( )-ATERLAHFLQRSSF-Gly(Me)-A-Ile(Me)-LSSTEVGSSTP-NH2] ({C20 diacid-γGlu}-RCGTATCATERLAHFLQRSSF[Sar]A[NMeI]LSSTEVGSSTP-NH2; disulfide 2-7)
3 | FND | FND | FD | 0.36 | CC[C@H](C)[C@@H](C(=O)N[C@@H](CC(C)C)C(=O)N[C@@H](CO)C(=O)N[C@@H](CO)C(=O)N[C@H](C(=O)N[C@@H](CCC(=O)O)C(=O)N[C@H](C(=O)NCC(=O)N[C@@H](CO)C(=O)N[C@@H](CO)C(=O)N[C@H](C(=O)N1CCC[C@H]1C(N)=O)[C@@H](C)O)C(C)C)[C@@H](C)O)N(C)C(=O)[C@H](C)NC(=O)CN(C)C(=O)[C@H](Cc1ccccc1)NC(=O)[C@H](CO)NC(=O)[C@H](CO)NC(=O)[C@H](CCCNC(=N)N)NC(=O)[C@H](CCC(=O)O)NC(=O)[C@H](CC(C)C)NC(=O)[C@H](Cc1ccccc1)NC(=O)[C@H](Cc1c[nH]cn1)NC(=O)[C@H](C)NC(=O)[C@H](CC(C)C)NC(=O)[C@H](CCCNC(=N)N)NC(=O)[C@H](CCC(=O)O)NC(=O)[C@@H](NC(=O)[C@H](C)NC(=O)[C@@H]1CSSC[C@H](NC(=O)[C@H](CCCNC(=N)N)NC(=O)CC[C@H](NC(=O)CCCCCCCCCCCCCCCCCCC(=O)O)C(=O)O)C(=O)NCC(=O)N[C@@H]([C@@H](C)O)C(=O)N[C@@H](C)C(=O)N[C@@H]([C@@H](C)O)C(=O)N1)[C@@H](C)O [Compound 36, [19CD]-isoGlu-R-C( )-GTAT-C( )-ATERLAHFLERSSF-Gly(Me)-A-Ile(Me)-LSSTEVGSSTP-NH2] ({C20 diacid-γGlu}-RCGTATCATERLAHFLERSSF[Sar]A[NMeI]LSSTEVGSSTP-NH2; disulfide 2-7)

Continued, compound first:

Row | Structure (SMILES) | Fibrillation pH 4.0 (Ac) [1] | Fibrillation pH 7.0 (His) [1] | Fibrillation pH 7.0 (Phos.) [1] | EC50 [2] [nM]
4 | CC[C@H](C)[C@@H](C(=O)N[C@@H](CC(C)C)C(=O)N[C@@H](CO)C(=O)N[C@@H](CO)C(=O)N[C@H](C(=O)N[C@@H](CCC(=O)O)C(=O)N[C@H](C(=O)NCC(=O)N[C@@H](CO)C(=O)N[C@@H](CC(N)=O)C(=O)N[C@H](C(=O)N1C[C@H](O)C[C@H]1C(N)=O)[C@@H](C)O)C(C)C)[C@@H](C)O)N(C)C(=O)[C@H](C)NC(=O)CN(C)C(=O)[C@H](Cc1ccccc1)NC(=O)[C@H](CO)NC(=O)[C@H](CO)NC(=O)[C@H](CCCNC(=N)N)NC(=O)[C@H](CC(N)=O)NC(=O)[C@H](CC(C)C)NC(=O)[C@H](Cc1ccccc1)NC(=O)[C@H](Cc1c[nH]cn1)NC(=O)[C@H](C)NC(=O)[C@H](CC(C)C)NC(=O)[C@H](CCCNC(=N)N)NC(=O)[C@H](CCC(=O)O)NC(=O)[C@@H](NC(=O)[C@H](C)NC(=O)[C@@H]1CSSC[C@H](NC(=O)[C@H](CCCNC(=N)N)NC(=O)CC[C@H](NC(=O)CCCCCCCCCCCCCCCCCCC(=O)O)C(=O)O)C(=O)NCC(=O)N[C@@H]([C@@H](C)O)C(=O)N[C@@H](C)C(=O)N[C@@H]([C@@H](C)O)C(=O)N1)[C@@H](C)O [Compound 6, [19CD]-isoGlu-R-C( )-GTAT-C( )-ATERLAHFLNRSSF-Gly(Me)-A-Ile(Me)-LSSTEVGSNT-Hyp-NH2] ({C20 diacid-γGlu}-RCGTATCATERLAHFLNRSSF[Sar]A[NMeI]LSSTEVGSNT[Hyp]-NH2; disulfide 2-7) | FND | FND | FND | 0.22
5 | CC[C@H](C)[C@@H](C(=O)N[C@@H](CC(C)C)C(=O)N[C@@H](CO)C(=O)N[C@@H](CO)C(=O)N[C@H](C(=O)N[C@@H](CCC(=O)O)C(=O)N[C@H](C(=O)NCC(=O)N[C@@H](CO)C(=O)N[C@@H](CC(N)=O)C(=O)N[C@H](C(=O)N1CCC[C@H]1C(N)=O)[C@@H](C)O)C(C)C)[C@@H](C)O)N(C)C(=O)[C@H](C)NC(=O)CN(C)C(=O)[C@H](Cc1ccccc1)NC(=O)[C@H](CO)NC(=O)[C@H](CO)NC(=O)[C@H](CCCNC(=N)N)NC(=O)[C@H](Cc1c[nH]cn1)NC(=O)[C@H](CC(C)C)NC(=O)[C@H](Cc1ccccc1)NC(=O)[C@H](Cc1c[nH]cn1)NC(=O)[C@H](C)NC(=O)[C@H](CC(C)C)NC(=O)[C@H](CCCNC(=N)N)NC(=O)[C@H](CCC(=O)O)NC(=O)[C@@H](NC(=O)[C@H](C)NC(=O)[C@@H]1CSSC[C@H](NC(=O)[C@H](CCCNC(=N)N)NC(=O)CC[C@H](NC(=O)CCCCCCCCCCCCCCCCCCC(=O)O)C(=O)O)C(=O)NCC(=O)N[C@@H]([C@@H](C)O)C(=O)N[C@@H](C)C(=O)N[C@@H]([C@@H](C)O)C(=O)N1)[C@@H](C)O [Compound 15, [19CD]-isoGlu-R-C( )-GTAT-C( )-ATERLAHFLHRSSF-Gly(Me)-A-Ile(Me)-LSSTEVGSNTP-NH2] ({C20 diacid-γGlu}-RCGTATCATERLAHFLHRSSF[Sar]A[NMeI]LSSTEVGSNTP-NH2; disulfide 2-7) | FND | FD | FND | 0.079
